Measured values as given in article PMC4490784, “Compensatory induction of MYC expression by sustained CDK9 inhibition via a BRD4-dependent mechanism” (eLife, 2015).

Experiments:
Assay in all cases: KINOMEscan binding assay
ACVR2B = target: T1, ACVR2B (Homo sapiens, UniProt Q13705)
T1 construct: purchased DiscoveRx KINOMEscan
Summary of the method: (§1)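 Kinome-wide competition binding assay (active site-directed), i-CDK9 tested at 1 µM and 10 µM, >400 targets.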

AMPK-alpha2 = target: T2, AMPK-alpha2 (Homo sapiens, UniProt P54646); conditions: read-out: % Retention on Solid Support
T2 construct: purchased DiscoveRx KINOMEscan
Summary of the method: as §1

CDC2L5 = target: T3, CDC2L5 (Homo sapiens, UniProt Q14004); conditions: 1 µM i-CDK9
T3 construct: purchased DiscoveRx KINOMEscan
Summary of the method: as §1

DRAK2 = target: T4, DRAK2 (Homo sapiens, UniProt O94768); conditions: read-out: % Retention on Solid Support
T4 construct: purchased DiscoveRx KINOMEscan
Summary of the method: as §1

EPHA7 = target: T5, EPHA7 (Homo sapiens, UniProt Q15375); conditions: read-out: % Retention on Solid Support
T5 construct: purchased DiscoveRx KINOMEscan
Summary of the method: as §1

EPHB4 = target: T6, EPHB4 (Homo sapiens, UniProt P54760); conditions: read-out: % Retention on Solid Support
T6 construct: purchased DiscoveRx KINOMEscan
T6 sequence (P54760 16-987): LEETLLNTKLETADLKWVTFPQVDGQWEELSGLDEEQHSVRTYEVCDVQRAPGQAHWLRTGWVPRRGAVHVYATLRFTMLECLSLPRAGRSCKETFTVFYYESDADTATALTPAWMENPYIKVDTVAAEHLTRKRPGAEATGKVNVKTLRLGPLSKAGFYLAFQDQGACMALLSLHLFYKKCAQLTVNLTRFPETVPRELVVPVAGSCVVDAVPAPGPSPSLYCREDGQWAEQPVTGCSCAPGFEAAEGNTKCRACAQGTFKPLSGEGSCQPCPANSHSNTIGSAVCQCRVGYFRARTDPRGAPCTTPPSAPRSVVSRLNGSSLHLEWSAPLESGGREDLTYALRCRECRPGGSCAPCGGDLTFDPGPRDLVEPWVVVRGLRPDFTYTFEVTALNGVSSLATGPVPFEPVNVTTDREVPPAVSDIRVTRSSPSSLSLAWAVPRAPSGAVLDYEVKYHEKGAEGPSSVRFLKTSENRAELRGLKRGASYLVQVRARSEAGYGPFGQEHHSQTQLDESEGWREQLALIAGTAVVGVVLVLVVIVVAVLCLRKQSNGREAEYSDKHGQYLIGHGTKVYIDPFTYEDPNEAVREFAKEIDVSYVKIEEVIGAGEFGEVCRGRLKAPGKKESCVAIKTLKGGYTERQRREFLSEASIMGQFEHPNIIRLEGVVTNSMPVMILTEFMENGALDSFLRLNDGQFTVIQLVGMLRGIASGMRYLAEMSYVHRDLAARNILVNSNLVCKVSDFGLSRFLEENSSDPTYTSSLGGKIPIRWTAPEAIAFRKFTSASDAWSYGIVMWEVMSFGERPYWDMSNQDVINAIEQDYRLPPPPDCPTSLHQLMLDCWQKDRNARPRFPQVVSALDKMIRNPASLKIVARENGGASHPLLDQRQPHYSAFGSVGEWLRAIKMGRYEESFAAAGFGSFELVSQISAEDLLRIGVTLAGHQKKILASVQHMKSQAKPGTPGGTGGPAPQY
Summary of the method: as §1

FGFR1 = target: T7, FGFR1 (Homo sapiens, UniProt P11362); conditions: read-out: % Retention on Solid Support
T7 construct: purchased DiscoveRx KINOMEscan
Summary of the method: as §1

GAK = target: T8, GAK (Homo sapiens, UniProt O14976); conditions: read-out: % Retention on Solid Support
T8 construct: purchased DiscoveRx KINOMEscan
Summary of the method: as §1

GRK7 = target: T9, GRK7 (Homo sapiens, UniProt Q8WTQ7); conditions: read-out: % Retention on Solid Support
T9 construct: purchased DiscoveRx KINOMEscan
Summary of the method: as §1

LCK = target: T10, LCK (Homo sapiens, UniProt P06239); conditions: read-out: % Retention on Solid Support
T10 construct: purchased DiscoveRx KINOMEscan
Summary of the method: as §1

LRRK2(G2019S) = target: T11, LRRK2(G2019S) (Homo sapiens, UniProt Q5S007, G2019S); conditions: 1 µM i-CDK9; read-out: % Retention on Solid Support
T11 construct: purchased DiscoveRx KINOMEscan
Summary of the method: as §1

LZK = target: T12, LZK (Homo sapiens, UniProt O43283)
T12 construct: purchased DiscoveRx KINOMEscan
Summary of the method: as §1

MKK7 = target: T13, MKK7 (Homo sapiens, UniProt O14733); conditions: 1 µM i-CDK9
T13 construct: purchased DiscoveRx KINOMEscan
Summary of the method: as §1

MST3 = target: T14, MST3 (Homo sapiens, UniProt Q9Y6E0)
T14 construct: purchased DiscoveRx KINOMEscan
Summary of the method: as §1

PCTK1 = target: T15, PCTK1 (Homo sapiens, UniProt Q00536); conditions: read-out: % Retention on Solid Support
T15 construct: purchased DiscoveRx KINOMEscan
Summary of the method: as §1

PIP5K1C = target: T16, PIP5K1C (Homo sapiens, UniProt O60331); conditions: 1 µM i-CDK9
T16 construct: purchased DiscoveRx KINOMEscan
Summary of the method: as §1

RET(V804M) = target: T17, RET(V804M) (Homo sapiens, UniProt P07949, V804M); conditions: read-out: % Retention on Solid Support
T17 construct: purchased DiscoveRx KINOMEscan
Summary of the method: as §1

RIPK5 = target: T18, RIPK5 (Homo sapiens, UniProt Q6XUX3); conditions: 1 µM i-CDK9; read-out: % Retention on Solid Support
T18 construct: purchased DiscoveRx KINOMEscan
Summary of the method: as §1

YANK1 = target: T19, YANK1 (Homo sapiens, UniProt Q8WU08); conditions: 1 µM i-CDK9; read-out: % Retention on Solid Support
T19 construct: purchased DiscoveRx KINOMEscan
Summary of the method: as §1

p38-beta = target: T20, p38-beta (Homo sapiens, UniProt Q15759); conditions: read-out: % Retention on Solid Support
T20 construct: purchased DiscoveRx KINOMEscan
Summary of the method: as §1

T1 sequence (Q13705 19-512): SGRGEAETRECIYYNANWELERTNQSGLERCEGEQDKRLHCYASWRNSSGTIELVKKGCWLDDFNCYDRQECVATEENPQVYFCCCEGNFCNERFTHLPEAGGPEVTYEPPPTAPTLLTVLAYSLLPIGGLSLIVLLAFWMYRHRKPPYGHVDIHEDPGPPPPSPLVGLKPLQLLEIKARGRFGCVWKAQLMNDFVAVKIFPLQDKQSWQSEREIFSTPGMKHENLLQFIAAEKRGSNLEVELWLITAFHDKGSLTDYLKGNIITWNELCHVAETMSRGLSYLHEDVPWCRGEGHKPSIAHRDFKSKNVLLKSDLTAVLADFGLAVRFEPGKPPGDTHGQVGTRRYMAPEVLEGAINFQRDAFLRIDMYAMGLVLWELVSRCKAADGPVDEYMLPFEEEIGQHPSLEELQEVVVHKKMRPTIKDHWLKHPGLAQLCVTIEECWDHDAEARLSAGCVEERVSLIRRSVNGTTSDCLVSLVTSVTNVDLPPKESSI
T17 sequence (P07949 29-1114 V804M): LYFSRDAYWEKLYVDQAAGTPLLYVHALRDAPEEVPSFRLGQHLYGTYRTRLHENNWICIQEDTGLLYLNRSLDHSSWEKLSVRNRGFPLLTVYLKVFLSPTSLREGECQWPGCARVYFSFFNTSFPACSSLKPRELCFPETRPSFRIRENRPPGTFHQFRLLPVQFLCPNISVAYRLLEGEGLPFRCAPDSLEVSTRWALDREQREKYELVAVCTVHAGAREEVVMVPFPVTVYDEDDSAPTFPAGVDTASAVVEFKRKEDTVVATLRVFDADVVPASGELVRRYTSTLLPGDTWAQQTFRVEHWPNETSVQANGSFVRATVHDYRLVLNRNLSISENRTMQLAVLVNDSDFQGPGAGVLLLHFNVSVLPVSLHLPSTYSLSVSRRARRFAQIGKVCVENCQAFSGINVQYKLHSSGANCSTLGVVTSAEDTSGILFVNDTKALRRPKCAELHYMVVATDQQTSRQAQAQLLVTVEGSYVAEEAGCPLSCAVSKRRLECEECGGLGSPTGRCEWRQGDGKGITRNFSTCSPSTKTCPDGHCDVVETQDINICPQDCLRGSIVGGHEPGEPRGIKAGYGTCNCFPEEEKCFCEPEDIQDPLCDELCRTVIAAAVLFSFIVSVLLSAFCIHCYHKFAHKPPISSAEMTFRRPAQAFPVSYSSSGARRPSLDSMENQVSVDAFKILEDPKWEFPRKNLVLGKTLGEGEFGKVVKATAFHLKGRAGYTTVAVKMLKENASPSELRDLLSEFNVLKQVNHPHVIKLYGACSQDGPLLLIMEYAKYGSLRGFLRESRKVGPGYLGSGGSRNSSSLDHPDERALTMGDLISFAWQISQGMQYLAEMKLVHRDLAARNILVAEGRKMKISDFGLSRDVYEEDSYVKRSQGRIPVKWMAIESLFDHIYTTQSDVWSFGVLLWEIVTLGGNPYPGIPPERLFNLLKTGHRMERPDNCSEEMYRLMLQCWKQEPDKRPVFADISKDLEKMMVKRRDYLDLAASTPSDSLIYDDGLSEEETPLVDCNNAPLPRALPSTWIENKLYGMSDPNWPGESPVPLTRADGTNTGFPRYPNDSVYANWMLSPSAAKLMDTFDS
T10 sequence (P06239 whole entry): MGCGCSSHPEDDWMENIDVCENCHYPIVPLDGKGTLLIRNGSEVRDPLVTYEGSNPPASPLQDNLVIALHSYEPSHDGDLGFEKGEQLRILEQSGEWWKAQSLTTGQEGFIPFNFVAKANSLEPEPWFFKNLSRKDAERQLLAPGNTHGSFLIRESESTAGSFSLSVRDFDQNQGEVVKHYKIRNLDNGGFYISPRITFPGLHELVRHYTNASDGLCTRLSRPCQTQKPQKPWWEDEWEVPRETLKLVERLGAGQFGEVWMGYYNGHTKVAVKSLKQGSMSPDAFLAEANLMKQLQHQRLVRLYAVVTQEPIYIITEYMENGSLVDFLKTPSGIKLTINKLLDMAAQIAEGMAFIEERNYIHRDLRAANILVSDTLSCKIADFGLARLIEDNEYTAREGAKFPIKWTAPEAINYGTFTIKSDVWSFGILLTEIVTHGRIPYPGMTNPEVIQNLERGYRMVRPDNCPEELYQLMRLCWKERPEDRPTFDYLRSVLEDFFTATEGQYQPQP
T4 sequence (O94768 whole entry): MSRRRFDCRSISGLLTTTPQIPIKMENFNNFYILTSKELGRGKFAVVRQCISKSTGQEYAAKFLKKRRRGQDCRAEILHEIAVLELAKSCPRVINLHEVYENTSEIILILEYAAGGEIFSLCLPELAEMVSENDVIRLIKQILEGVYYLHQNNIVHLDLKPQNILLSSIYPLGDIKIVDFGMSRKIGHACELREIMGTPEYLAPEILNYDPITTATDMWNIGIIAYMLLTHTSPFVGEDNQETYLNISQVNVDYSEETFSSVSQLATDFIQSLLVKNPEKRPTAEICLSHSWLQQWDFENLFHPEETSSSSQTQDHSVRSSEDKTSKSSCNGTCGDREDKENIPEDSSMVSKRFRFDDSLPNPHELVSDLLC
T20 sequence (Q15759 whole entry): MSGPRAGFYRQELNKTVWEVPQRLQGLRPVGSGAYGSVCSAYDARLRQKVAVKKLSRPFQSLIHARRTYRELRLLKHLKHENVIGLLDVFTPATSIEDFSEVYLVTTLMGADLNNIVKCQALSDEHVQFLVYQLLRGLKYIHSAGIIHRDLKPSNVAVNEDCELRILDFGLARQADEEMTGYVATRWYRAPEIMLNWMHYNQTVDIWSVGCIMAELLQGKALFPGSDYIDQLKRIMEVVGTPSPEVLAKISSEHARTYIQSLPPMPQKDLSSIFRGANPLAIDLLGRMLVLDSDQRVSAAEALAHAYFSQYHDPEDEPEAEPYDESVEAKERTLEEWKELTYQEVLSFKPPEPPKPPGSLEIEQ
T9 sequence (Q8WTQ7 whole entry): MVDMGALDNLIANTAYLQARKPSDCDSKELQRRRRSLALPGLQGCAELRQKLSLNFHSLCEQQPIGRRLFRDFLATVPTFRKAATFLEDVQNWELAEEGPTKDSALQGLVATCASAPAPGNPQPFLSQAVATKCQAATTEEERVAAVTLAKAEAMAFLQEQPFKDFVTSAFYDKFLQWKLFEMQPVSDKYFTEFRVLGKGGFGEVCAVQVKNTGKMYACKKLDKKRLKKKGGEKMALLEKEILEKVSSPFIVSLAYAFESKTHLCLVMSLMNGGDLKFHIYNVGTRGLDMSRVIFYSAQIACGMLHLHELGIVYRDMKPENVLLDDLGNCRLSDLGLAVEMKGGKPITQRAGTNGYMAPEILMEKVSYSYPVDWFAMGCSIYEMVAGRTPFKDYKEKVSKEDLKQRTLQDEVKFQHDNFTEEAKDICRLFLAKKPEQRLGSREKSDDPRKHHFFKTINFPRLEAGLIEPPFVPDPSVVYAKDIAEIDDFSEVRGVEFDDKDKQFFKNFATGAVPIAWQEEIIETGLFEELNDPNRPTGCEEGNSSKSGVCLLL
T12 sequence (O43283 whole entry): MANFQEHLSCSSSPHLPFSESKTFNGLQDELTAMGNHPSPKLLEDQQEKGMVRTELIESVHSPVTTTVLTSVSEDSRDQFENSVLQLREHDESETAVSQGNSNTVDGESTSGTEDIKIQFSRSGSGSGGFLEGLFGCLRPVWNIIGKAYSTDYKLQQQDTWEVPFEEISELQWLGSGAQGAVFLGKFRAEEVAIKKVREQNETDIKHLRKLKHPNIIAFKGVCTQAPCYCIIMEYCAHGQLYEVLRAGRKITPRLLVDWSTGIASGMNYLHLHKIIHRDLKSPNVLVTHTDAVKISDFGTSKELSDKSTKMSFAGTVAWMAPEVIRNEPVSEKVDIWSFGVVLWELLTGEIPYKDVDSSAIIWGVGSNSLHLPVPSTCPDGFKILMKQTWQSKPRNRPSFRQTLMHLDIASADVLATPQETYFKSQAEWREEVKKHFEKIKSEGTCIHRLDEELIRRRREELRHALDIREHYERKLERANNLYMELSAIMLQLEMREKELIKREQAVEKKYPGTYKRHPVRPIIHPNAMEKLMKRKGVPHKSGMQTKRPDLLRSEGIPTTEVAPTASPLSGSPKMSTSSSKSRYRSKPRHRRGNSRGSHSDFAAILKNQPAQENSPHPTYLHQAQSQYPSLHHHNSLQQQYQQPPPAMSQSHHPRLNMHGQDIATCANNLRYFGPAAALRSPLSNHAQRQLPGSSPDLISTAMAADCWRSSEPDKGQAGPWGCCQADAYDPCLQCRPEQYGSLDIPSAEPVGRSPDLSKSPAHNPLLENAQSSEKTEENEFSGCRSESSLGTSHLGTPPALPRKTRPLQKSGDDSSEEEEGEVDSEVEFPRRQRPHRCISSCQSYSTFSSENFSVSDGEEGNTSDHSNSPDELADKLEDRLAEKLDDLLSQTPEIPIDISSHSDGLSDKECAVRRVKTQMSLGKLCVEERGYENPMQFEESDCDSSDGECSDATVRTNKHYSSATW
T14 sequence (Q9Y6E0 whole entry): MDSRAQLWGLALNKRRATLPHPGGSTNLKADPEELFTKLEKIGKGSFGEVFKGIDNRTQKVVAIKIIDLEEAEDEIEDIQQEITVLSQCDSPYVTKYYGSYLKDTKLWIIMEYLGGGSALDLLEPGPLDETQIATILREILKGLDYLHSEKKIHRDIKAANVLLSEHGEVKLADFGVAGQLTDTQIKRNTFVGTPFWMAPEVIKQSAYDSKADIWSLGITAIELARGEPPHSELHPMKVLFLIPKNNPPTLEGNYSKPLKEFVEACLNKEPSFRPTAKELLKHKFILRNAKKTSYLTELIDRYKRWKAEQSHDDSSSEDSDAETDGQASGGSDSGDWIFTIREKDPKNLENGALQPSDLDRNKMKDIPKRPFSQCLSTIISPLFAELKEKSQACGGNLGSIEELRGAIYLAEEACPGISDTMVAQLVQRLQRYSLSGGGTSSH

Compound: N[C@H]1CC[C@H](Nc2cc(-c3cccc(NCc4cccc(F)c4)n3)c(Cl)cn2)CC1 [i-CDK9, N2′-(trans-4-aminocyclohexyl)-5′-chloro-N6-(3-fluorobenzyl)-2,4′-bipyridine-2′,6-diamine]
- % Retention on Solid Support (ACVR2B; 1 µM i-CDK9): 100%
- % Retention on Solid Support (ACVR2B; 10 µM i-CDK9): 85%
- remaining binding at 1 µM (AMPK-alpha2; 1 µM i-CDK9): 83%
- remaining binding at 10 µM (AMPK-alpha2; 10 µM i-CDK9): 88%
- % Retention on Solid Support (CDC2L5): 100%
- remaining binding at 1 µM (DRAK2; 1 µM i-CDK9): 82%
- remaining binding at 10 µM (DRAK2; 10 µM i-CDK9): 72%
- remaining binding at 1 µM (EPHA7; 1 µM i-CDK9): 100%
- remaining binding at 10 µM (EPHA7; 10 µM i-CDK9): 96%
- remaining binding at 1 µM (EPHB4; 1 µM i-CDK9): 100%
- remaining binding at 10 µM (EPHB4; 10 µM i-CDK9): 100%
- remaining binding at 1 µM (FGFR1; 1 µM i-CDK9): 100%
- remaining binding at 10 µM (FGFR1; 10 µM i-CDK9): 100%
- remaining binding at 1 µM (GAK; 1 µM i-CDK9): 100%
- remaining binding at 10 µM (GAK; 10 µM i-CDK9): 89%
- remaining binding at 1 µM (GRK7; 1 µM i-CDK9): 100%
- remaining binding at 10 µM (GRK7; 10 µM i-CDK9): 84%
- remaining binding at 1 µM (LCK; 1 µM i-CDK9): 100%
- remaining binding at 10 µM (LCK; 10 µM i-CDK9): 100%
- remaining binding at 1 µM (LRRK2(G2019S)): 100%
- % Retention on Solid Support (LZK; 1 µM i-CDK9): 100%
- % Retention on Solid Support (LZK; 10 µM i-CDK9): 100%
- % Retention on Solid Support (MKK7): 100%
- % Retention on Solid Support (MST3; 1 µM i-CDK9): 83%
- % Retention on Solid Support (MST3; 10 µM i-CDK9): 90%
- remaining binding at 1 µM (PCTK1; 1 µM i-CDK9): 19%
- remaining binding at 10 µM (PCTK1; 10 µM i-CDK9): 0.85%
- % Retention on Solid Support (PIP5K1C): 85%
- remaining binding at 1 µM (RET(V804M); 1 µM i-CDK9): 74%
- remaining binding at 10 µM (RET(V804M); 10 µM i-CDK9): 74%
- remaining binding at 1 µM (RIPK5): 100%
- remaining binding at 1 µM (YANK1): 100%
- remaining binding at 1 µM (p38-beta; 1 µM i-CDK9): 66%
- remaining binding at 10 µM (p38-beta; 10 µM i-CDK9): 100%
